# Experiments:
# Assay in all cases: relative viability (nuclei count vs DMSO), 5 days (fraction); higher = more cells survive
# Crenolanib + Foretinib = compound: CC1(COc2ccc3c(c2)ncn3-c2ccc3cccc(N4CCC(N)CC4)c3n2)COC1 [Crenolanib] + COc1cc2c(Oc3ccc(NC(=O)C4(C(=O)Nc5ccc(F)cc5)CC4)cc3F)ccnc2cc1OCCCN1CCOCC1 [Foretinib] (partner 0.25 µM)
# Outline: (§1)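 Medians of duplicate plates are given as relative viability. That measure is the nuclei count in treated wells divided by the count in vehicle wells. Counts were taken on 4× images of lung cancer cell lines in 1536-well plates, 5 days after pin-tool dosing the day after seeding with one drug alone or a fixed anchor-drug dose plus five library-drug doses (not always all listed) in √10 steps.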
# Crenolanib + Pictilisib = compound: CC1(COc2ccc3c(c2)ncn3-c2ccc3cccc(N4CCC(N)CC4)c3n2)COC1 [Crenolanib] + CS(=O)(=O)N1CCN(Cc2cc3nc(-c4cccc5[nH]ncc45)nc(N4CCOCC4)c3s2)CC1 [Pictilisib] (partner 1 µM)
# Outline: as §1
# Tivantinib + Tozasertib = compound: O=C1NC(=O)[C@@H](c2cn3c4c(cccc24)CCC3)[C@@H]1c1c[nH]c2ccccc12 [Tivantinib] + Cc1cc(Nc2cc(N3CCN(C)CC3)nc(Sc3ccc(NC(=O)C4CC4)cc3)n2)n[nH]1 [Tozasertib] (partner 0.1 µM)
# Outline: as §1
# Tivantinib + Olaparib = compound: O=C1NC(=O)[C@@H](c2cn3c4c(cccc24)CCC3)[C@@H]1c1c[nH]c2ccccc12 [Tivantinib] + O=C(c1cc(Cc2n[nH]c(=O)c3ccccc23)ccc1F)N1CCN(C(=O)C2CC2)CC1 [Olaparib] (partner 8 µM)
# Outline: as §1
Cell Line,relative viability (Crenolanib + Foretinib; first compound 0.01 µM),relative viability (Crenolanib + Foretinib; first compound 0.03162 µM),relative viability (Crenolanib + Foretinib; first compound 0.1 µM),relative viability (Crenolanib + Foretinib; first compound 0.3162 µM),relative viability (Crenolanib + Foretinib; first compound 1 µM),relative viability (Crenolanib + Pictilisib; first compound 0.01 µM),relative viability (Crenolanib + Pictilisib; first compound 0.03162 µM),relative viability (Crenolanib + Pictilisib; first compound 0.1 µM),relative viability (Crenolanib + Pictilisib; first compound 0.3162 µM),relative viability (Crenolanib + Pictilisib; first compound 1 µM),relative viability (Tivantinib + Tozasertib; first compound 0.03162 µM),relative viability (Tivantinib + Tozasertib; first compound 0.1 µM),relative viability (Tivantinib + Tozasertib; first compound 0.3162 µM),relative viability (Tivantinib + Olaparib; first compound 0.01 µM),relative viability (Tivantinib + Olaparib; first compound 0.03162 µM),relative viability (Tivantinib + Olaparib; first compound 0.1 µM),relative viability (Tivantinib + Olaparib; first compound 0.3162 µM),relative viability (Tivantinib + Tozasertib; first compound 0.01 µM)
NCI-H2228,0.994,0.923,0.693,1.14,1.04,0.372,0.397,0.272,0.491,0.361,0.356,0.221,0.214,0.43,0.815,0.678,0.587,–
NCI-H322M,0.951,1.07,0.973,0.96,0.98,0.519,0.499,0.527,0.517,0.493,0.458,0.502,–,0.718,0.754,0.777,–,0.483
NCI-H1993,0.768,0.551,0.719,0.889,0.731,0.778,0.805,0.71,0.858,0.825,0.595,0.543,0.51,1.22,1.04,1.05,0.589,0.541
NCI-H1944,0.857,0.865,0.872,0.887,0.817,0.367,0.351,0.37,0.346,0.304,0.232,0.264,0.204,0.368,0.424,0.39,0.374,0.257
LXF-289,1.02,0.971,0.942,0.989,0.977,0.761,0.666,0.733,0.916,0.755,0.129,0.202,0.204,1.02,1.05,1.01,1.02,0.176
NCI-H2405,1.16,1.05,–,1.02,1.06,0.473,0.417,0.285,0.347,0.375,0.782,0.756,0.707,1.02,0.895,0.868,0.867,0.759
NCI-H2023,0.785,1.01,0.942,1.05,1.02,0.264,0.288,0.233,0.278,0.205,0.325,0.268,0.308,0.52,0.452,0.479,0.402,0.337
HCC-366,0.918,0.954,0.956,0.942,0.938,0.182,0.164,0.132,0.143,0.137,0.114,0.115,0.0949,0.278,0.35,0.308,0.346,0.103
HCC-78,0.584,0.59,–,0.545,0.525,0.24,0.223,0.239,0.216,0.237,0.437,0.405,0.277,0.99,0.767,0.709,0.62,0.443
COR-L23,1,0.958,0.925,0.991,0.927,0.777,0.756,0.677,1.03,0.654,0.188,0.184,0.234,0.339,0.417,0.328,0.326,0.185
HCC-827,1.08,1.04,1.04,1.1,0.998,1.12,1.16,0.961,0.94,1.03,0.402,0.48,0.312,0.661,0.681,0.673,–,0.388
NCI-H1299,1.1,1.04,1.06,1.05,1.11,0.793,0.825,0.657,0.878,0.795,–,–,–,0.941,0.933,1.01,0.93,–
IA-LM,1.37,1.1,1.08,1.22,1.3,0.331,0.305,0.314,0.64,0.522,–,–,–,0.907,–,0.789,0.809,–
NCI-H1563,0.952,0.884,0.852,0.899,0.948,0.608,0.633,0.693,0.652,0.59,–,–,–,–,–,–,–,–
NCI-H1703,0.32,0.293,0.321,0.313,0.269,0.237,0.238,0.212,0.209,0.228,–,–,–,0.524,0.444,0.527,0.309,–
NCI-H1648,–,–,–,–,–,–,–,–,–,–,0.385,0.425,–,–,0.889,0.611,0.528,0.71
NCI-H1792,–,–,–,–,–,0.32,0.34,0.29,0.269,0.195,–,–,–,0.406,–,0.406,0.3,–
A549,0.996,0.894,0.891,1.04,1.01,0.608,0.545,0.554,0.689,0.506,–,–,–,0.204,0.253,0.301,0.214,–
NCI-H522,–,–,–,–,–,–,–,–,–,–,0.463,0.536,0.491,0.639,0.579,0.698,0.517,0.636
NCI-H1623,0.99,0.888,0.86,0.859,0.838,–,–,–,–,–,0.424,0.441,–,–,–,–,–,0.388
SW 900,0.69,0.91,0.818,1.15,0.848,–,–,–,–,–,0.577,0.636,0.576,0.939,1.03,0.809,0.742,0.642
EBC-1,0.102,0.104,0.0945,0.106,0.115,0.469,0.423,0.333,0.357,0.422,–,–,–,0.708,0.681,0.781,0.711,–
